Laboratory results: US10894792B2, “Pesticidally active heterocyclic derivatives with sulfur containing substituents” (SYNGENTA PARTICIPATIONS AG, priority 2017, dated 2021)

Tests used:
Format in all cases: in vivo
[1] = system: Myzus persicae; experiment: Activity against Myzus persicae (green peach aphid), sprayed sunflower leaf discs; conditions: foliar, 144 h, application rate of 200 ppm, aphid population of mixed ages, 6 days after infestation
Description: Sunflower leaf discs were placed on agar in a 24-well microtiter plate and sprayed with aqueous test solutions prepared from 10′000 ppm DMSO stock solutions. After drying, the leaf discs were infested with an aphid population of mixed ages. The samples were assessed for mortality 6 days after infestation.

[2] = system: Euschistus heros; experiment: Activity against Euschistus heros (neotropical brown stink bug); conditions: 120 h, application rate of 200 ppm, sprayed soybean leaf, N-2 nymphs, 5 days after infestation, read-out: effect in at least one of the two categories (mortality or growth inhibition)
Description: Soybean leaf on agar in 24-well microtiter plates were sprayed with aqueous test solutions prepared from 10′000 ppm DMSO stock solutions. After drying the leaf were infested with N-2 nymphs. The samples were assessed for mortality and growth inhibition in comparison to untreated samples 5 days after infestation.

[3] = system: Myzus persicae; experiment: Activity against Myzus persicae (green peach aphid), roots of pea seedlings in test solution; conditions: 144 h, test rate of 24 ppm, roots of infested pea seedlings in test solution, 6 days
Description: Roots of pea seedlings infested with an aphid population of mixed ages were placed directly in the aqueous test solutions prepared from 10′000 DMSO stock solutions. The samples were assessed for mortality 6 days after placing seedlings in test solutions.

[4] = system: Plutella xylostella; experiment: Activity against Plutella xylostella (diamond back moth), artificial diet; conditions: 120 h, application rate of 200 ppm, L2 larvae on artificial diet, 5 days after infestation, read-out: effect in at least one of the two categories (mortality or growth inhibition)
Description: 24-well microtiter plates with artificial diet were treated with aqueous test solutions prepared from 10′000 ppm DMSO stock solutions by pipetting. After drying, the plates were infested with L2 larvae (10 to 15 per well). The samples were assessed for mortality and growth inhibition in comparison to untreated samples 5 days after infestation.

[5] = system: Bemisia tabaci; experiment: Activity against Bemisia tabaci (cotton white fly); conditions: foliar, 144 h, application rate of 200 ppm, sprayed cotton leaf discs, adult white flies, 6 days after incubation
Description: Cotton leaf discs were placed on agar in 24-well microtiter plates and sprayed with aqueous test solutions prepared from 10′000 ppm DMSO stock solutions. After drying the leaf discs were infested with adult white flies. The samples were checked for mortality 6 days after incubation.

[6] = system: Diabrotica Balteata; experiment: Activity against Diabrotica balteata (corn root worm); conditions: 96 h, application rate of 200 ppm, sprayed maize sprouts, L2 larvae, 4 days after infestation, read-out: effect in at least one of the two categories (mortality or growth inhibition)
Description: Maize sprouts placed onto an agar layer in 24-well microtiter plates were treated with aqueous test solutions prepared from 10′000 ppm DMSO stock solutions by spraying. After drying, the plates were infested with L2 larvae (6 to 10 per well). The samples were assessed for mortality and growth inhibition in comparison to untreated samples 4 days after infestation.

CCS(=O)(=O)c1cc(C(=O)N=S2(=O)CCOCC2)cnc1-c1nc2cc(C(F)(F)F)ncc2n1C [Compound P2, 5-ethylsulfonyl-6-[3-methyl-6-(trifluoromethyl)imidazo[4,5-c]pyridin-2-yl]-N-(4-oxo-1,4-oxathian-4-ylidene)pyridine-3-carboxamide]
≥ 80%: mortality at 200 ppm [1] | percent effect (mortality or growth inhibition) at 200 ppm [2] | mortality at 24 ppm [3]

CCS(=O)(=O)c1cc(C(=O)N=S(=O)(CC)CC)cnc1-c1nc2cc(C(F)(F)F)ncc2n1C [Compound P3]
≥ 80%: mortality at 200 ppm [1] | percent effect (mortality or growth inhibition) at 200 ppm [2] | percent effect (mortality or growth inhibition) at 200 ppm [4] | mortality at 200 ppm [5] | mortality at 24 ppm [3]

CCS(=O)(=O)c1cc(C(=O)N=S(C)C)cnc1-c1nc2cc(C(F)(F)F)ncc2n1C [Compound P5, N-(dimethyl-λ^4-sulfanylidene)-5-ethylsulfonyl-6-[3-methyl-6-(trifluoromethyl)imidazo[4,5-c]pyridin-2-yl]pyridine-3-carboxamide]
≥ 80%: mortality at 200 ppm [1] | percent effect (mortality or growth inhibition) at 200 ppm [2] | mortality at 200 ppm [5] | percent effect (mortality or growth inhibition) at 200 ppm [6] | mortality at 24 ppm [3]

CCS(=O)(=O)c1cc(C(=O)N=S(C)(C)=O)cnc1-c1nc2cc(C(F)(F)F)nnc2n1C [Compound P6, N-[dimethyl(oxo)-λ^6-sulfanylidene]-5-ethylsulfonyl-6-[7-methyl-3-(trifluoromethyl)imidazo[4,5-c]pyridazin-6-yl]pyridine-3-carboxamide]
≥ 80%: mortality at 200 ppm [1] | percent effect (mortality or growth inhibition) at 200 ppm [2] | percent effect (mortality or growth inhibition) at 200 ppm [4] | mortality at 200 ppm [5] | percent effect (mortality or growth inhibition) at 200 ppm [6] | mortality at 24 ppm [3]

CCS(=O)(=O)c1cc(C(=O)N=S2(=O)CCC2)cnc1-c1nc2cc(C(F)(F)F)ncc2n1C [Compound P12, 5-ethylsulfonyl-6-[3-methyl-6-(trifluoromethyl)imidazo[4,5-c]pyridin-2-yl]-N-(1-oxothietan-1-ylidene)pyridine-3-carboxamide]
≥ 80%: mortality at 200 ppm [1] | percent effect (mortality or growth inhibition) at 200 ppm [4] | mortality at 200 ppm [5] | mortality at 24 ppm [3]

CCS(=O)(=O)c1cc(C(=O)N=S2(=O)CCOCC2)cnc1-c1nc2cc(C(F)(F)F)cnc2n1C [Compound P17, 5-ethylsulfonyl-6-[3-methyl-6-(trifluoromethyl)imidazo[4,5-b]pyridin-2-yl]-N-(4-oxo-1,4-oxathian-4-ylidene)pyridine-3-carboxamide]
≥ 80%: mortality at 200 ppm [1] | percent effect (mortality or growth inhibition) at 200 ppm [2] | percent effect (mortality or growth inhibition) at 200 ppm [4] | mortality at 24 ppm [3]

CCS(=O)(=O)c1cc(C(=O)N=S(=O)(CC)CC)cnc1-c1nc2cc(C(F)(F)F)nnc2n1C [Compound P18, N-[diethyl(oxo)-λ^6-sulfanylidene]-5-ethylsulfonyl-6-[7-methyl-3-(trifluoromethyl)imidazo[4,5-c]pyridazin-6-yl]pyridine-3-carboxamide]
≥ 80%: mortality at 200 ppm [1] | percent effect (mortality or growth inhibition) at 200 ppm [2] | percent effect (mortality or growth inhibition) at 200 ppm [4] | mortality at 200 ppm [5] | percent effect (mortality or growth inhibition) at 200 ppm [6] | mortality at 24 ppm [3]
